“Also recorded” adds a separate entry of the source.
Tests used:
glucocorticoid receptor = target: T1, glucocorticoid receptor (Homo sapiens, UniProt P04150); assay: Cross-reactivity, glucocorticoid receptor activation (agonist and antagonist); assay type: cell-based
T1 sequence (P04150 1-777): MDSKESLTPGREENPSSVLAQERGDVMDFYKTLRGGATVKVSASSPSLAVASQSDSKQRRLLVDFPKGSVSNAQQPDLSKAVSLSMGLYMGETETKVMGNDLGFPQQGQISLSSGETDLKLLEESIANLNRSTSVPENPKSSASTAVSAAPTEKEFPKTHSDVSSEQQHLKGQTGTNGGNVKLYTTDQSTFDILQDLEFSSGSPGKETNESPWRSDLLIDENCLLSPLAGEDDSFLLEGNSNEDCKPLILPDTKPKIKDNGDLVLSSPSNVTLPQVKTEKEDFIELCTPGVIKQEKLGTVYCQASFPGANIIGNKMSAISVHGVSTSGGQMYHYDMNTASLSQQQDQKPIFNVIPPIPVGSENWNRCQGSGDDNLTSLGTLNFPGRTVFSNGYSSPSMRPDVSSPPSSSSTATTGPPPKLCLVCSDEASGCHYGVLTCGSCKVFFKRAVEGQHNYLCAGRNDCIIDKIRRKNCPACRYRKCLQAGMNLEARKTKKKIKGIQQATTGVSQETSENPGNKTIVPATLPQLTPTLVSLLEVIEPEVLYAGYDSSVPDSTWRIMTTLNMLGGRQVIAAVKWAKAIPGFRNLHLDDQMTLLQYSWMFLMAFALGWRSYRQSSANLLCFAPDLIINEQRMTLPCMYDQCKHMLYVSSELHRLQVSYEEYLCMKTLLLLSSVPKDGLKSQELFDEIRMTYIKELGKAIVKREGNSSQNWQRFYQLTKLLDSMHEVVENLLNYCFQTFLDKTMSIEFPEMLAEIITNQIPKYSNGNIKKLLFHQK
Description: This assay is described in further detail in U.S. Pat. Nos. 4,981,784 and 5,071,773, which are incorporated herein by reference. The co-transfection assay provides a method for identifying functional ligands (either agonists which mimic, or antagonists which inhibit, the effect of hormones) for ligand-responsive receptor proteins.
The co-transfection assay provides a mechanism to evaluate ability of a compound to function as an agonist or antagonist of the activity modulated by an intracellular receptor. The co-transfection assay mimics an in vivo system in the laboratory. In the co-transfection assay, a cloned gene for an intracellular receptor is introduced by transfection (a procedure to induce cells to take up foreign genes) into a background cell substantially devoid of endogenous intracellular receptors. This introduced gene directs the recipient cells to make the intracellular receptor protein. A second gene is also introduced (co-transfected) into the same cells in conjunction with the intracellular receptor gene. This second gene functions as a reporter for the transcription-modulating activity of the target intracellular receptor. The reporter acts as a surrogate for the products normally expressed by a gene under control of the target receptor and its natural hormone.
A preferred reporter gene is one which expresses the firefly enzyme luciferase. The co-transfection assay can detect small molecule agonists or antagonists of target intracellular receptors. Exposing the cells to an agonist ligand increases reporter activity in the transfected cells that can be conveniently measured, reflecting ligand-dependent, intracellular receptor-mediated increases in reporter transcription. To detect antagonists, the co-transfection assay is carried out in the presence of a constant concentration of an agonist known to induce a defined reporter signal. […]
Co-transfected cells are exposed to a medium to which is added the potential ligand that is being evaluated. […] Antagonist activity is evaluated by adding the candidate ligand and a known agonist to the co-transfected cells. […]

T47D cells = assay: Alkaline phosphatase activity in T47D cells (induction and its inhibition); assay type: cell-based, human; conditions: for Agonist activity, alkaline phosphatase induction: ligand alone, three days
Description: The functional activities of the cyclocymopol analogues in the human breast cell line, T47D, were also investigated. T47D cells have proven to be a particularly useful model to investigate the molecular actions of sex steroids because they contain endogenous functional receptors for, and respond to, progestins, and their respective antagonists. Moreover, these cells contain exceptionally high titers of progesterone receptors and are exquisitely sensitive to the actions of progestins in a manner quite similar to their actions in normal and neoplastic mammary epithelial cells. In T47D cells, progestins induce de novo synthesis of a plasma-associated alkaline phosphatase, which has been reported to be similar, if not identical, to the alkaline phosphatase present in the normal breast and human milk. These tests were conducted according to the following illustrative example. […] For routine induction of alkaline phosphatase, cells were treated for three days with two media changes and harvested as described below. […] Nuclei were sedimented at 2500 rpm, and the supernatant was saved as cytosol. The protein content of the cytosol was assayed by the method of Bradford. Alkaline phosphatase activity was determined by incubating one volume of cell extract with three volumes of 1 mg/ml p-nitrophenol phosphate prepared in DEAM (1M diethanolamine, pH=9, containing 2 mM magnesium chloride) at room temperature for 20 min. At the end of the incubation time, the reaction was stopped with an equal volume of 1N NaOH. Ten standards of p-nitrophenol were prepared in DEAM buffer and absorbance was read at 405 nm. Alkaline phosphatase activity is expressed as pmol p-nitrophenol formed/min/mg protein.

Compound	Agonist/antagonist activity with glucocorticoid receptor (glucocorticoid receptor)	Inhibition of progesterone-stimulated alkaline phosphatase activity (T47D cells; 1.0 nM progesterone)	Inhibition of R5020-induced alkaline phosphatase activity (T47D cells; R5020-induced)	Agonist activity, alkaline phosphatase induction (T47D cells)	Inhibition of alkaline phosphatase induced by SO-54 and SO-51 (T47D cells; induction by SO-54 or SO-51, FIG. 11)
C=C1CC[C@@H](Br)C(C)(C)[C@@H]1Cc1cc(OC)c(Br)cc1O [SO-53, (3R)-cyclocymopol monomethyl ether]	neither agonist nor antagonist activity	attenuated this induction in a concentration-dependent manner; also recorded: attenuated the effects of progesterone in a concentration-dependant manner	effective antagonist of the progesterone mimic	very weak agonists	
C=C1CC[C@@H](Br)C(C)(C)[C@@H]1Cc1cc(OC)c(Br)cc1OC(C)=O [SO-52]	slight agonist activity			very weak agonists	
CC#C[C@]1(O)CC[C@H]2[C@@H]3CCC4=CC(=O)CCC4=C3[C@@H](c3ccc(N(C)C)cc3)C[C@@]21C [RU-486, reference compound]	significant activity				blocked
